Reference: patent US5093231A, “Substrate composition for alkaline phosphatase and method for assay using same” (Becton, Dickinson and Company, priority 1991, dated 1992)

Columns and labels:
[1] = tested on: bovine liver alkaline phosphatase; assay: Accelerated stability of levamisole (and its p-bromo analogue) in various buffers; functional amount measured by inhibition of bovine liver AP; settings: for Percent of Functional Levamisole Remaining: Day 0
Protocol: (§1) Various buffers were prepared at 100 mM concentrations, containing 1 mM magnesium chloride, and adjusted to pH 9.8. […] (accelerated decomposition study). […] Bovine liver AP was added and the reaction kinetics were followed at 405 nm.

[2] = as above; settings: pH 9.8
Protocol: as §1

[3] = cited from earlier work
AP from the intestine = settings: Van Belle, Biochim. et Biophys. Acta., 289, 158 (1972); cited from earlier work
[4] = tested on: bovine liver alkaline phosphatase; assay: Potency of the p-bromo analogue relative to levamisole as AP inhibitor; format: biochemical

With c1ccc([C@H]2CN3CCSC3=N2)cc1 [levamisole, (-)2,3,5,6-tetrahydro-6-phenylimidazo[1,2-b]thiazole] the “Percent of Functional Levamisole Remaining” value ([1]; AMP buffer 100 mM, 1 mM magnesium chloride, pH 9.8, 45° C., 1 mM levamisole) was 100%, the “Percent of Functional Levamisole Remaining” value ([1]; AMPD buffer 100 mM, 1 mM magnesium chloride, pH 9.8, 45° C., 1 mM levamisole) was 100% and the “Percent of Functional Levamisole Remaining” value ([1]; Carbonate buffer 100 mM, 1 mM magnesium chloride, pH 9.8, 45° C., 1 mM levamisole) was 100%. For the same compound, the “Percent of Functional Levamisole Remaining” value ([1]; Diethanolamine buffer 100 mM, 1 mM magnesium chloride, pH 9.8, 45° C., 1 mM levamisole) was 100%, the “Percent of Functional Levamisole Remaining” value ([1]; Glycine buffer 100 mM, 1 mM magnesium chloride, pH 9.8, 45° C., 1 mM levamisole) was 100% and the “Percent of Functional Levamisole Remaining” value ([1]; Triethanolamine buffer 100 mM, 1 mM magnesium chloride, pH 9.8, 45° C., 1 mM levamisole) was 100%. For the same compound, the “stability of levamisole compared between buffers” value ([1]; pH 9.8, 45° C., summary of Table I) was “substantially greater in AMPD and particularly in AMP than in other buffers”, the remaining at 72 h, 1000 µM ([2]; amp buffer) was 118% and the remaining at 216 h, 1000 µM ([2]; amp buffer) was 107%. The remaining at 408 h, 1000 µM ([2]; amp buffer) was 87.1%, the remaining at 72 h, 1000 µM ([2]; ampd buffer) was 110% and the remaining at 216 h, 1000 µM ([2]; ampd buffer) was 90.2%. For the same compound, the remaining at 408 h, 1000 µM ([2]; ampd buffer) was 71.7%, the remaining at 72 h, 1000 µM ([2]; carbonate buffer) was 63.8% and the remaining at 216 h, 1000 µM ([2]; carbonate buffer) was 32.1%. The remaining at 408 h, 1000 µM ([2]; carbonate buffer) was 13.7%, the remaining at 72 h, 1000 µM ([2]; diethanolamine buffer) was 79.8% and the remaining at 216 h, 1000 µM ([2]; diethanolamine buffer) was 9.12%. For the same compound, the remaining at 408 h, 1000 µM ([2]; diethanolamine buffer) was 0.31%, the remaining at 72 h, 1000 µM ([2]; glycine buffer) was 0.08% and the remaining at 216 h, 1000 µM ([2]; glycine buffer) was 0.02%. For the same compound, the remaining at 408 h, 1000 µM ([2]; glycine buffer) was 0%, the remaining at 72 h, 1000 µM ([2]; triethanolamine buffer) was 94.4% and the remaining at 216 h, 1000 µM ([2]; triethanolamine buffer) was 66.6%. For the same compound, the remaining at 408 h, 1000 µM ([2]; triethanolamine buffer) was 37.6%, the “decomposition rate at pH 7.9 relative to pH 2” value ([3]; elevated temperature, Dickinson et al., Analyst, 96, 248 (1971)) was 70 times and the “pH of solution at which levamisole hydrolyzes” value ([3]; in solution) was ≥ 4. The “fold less potent toward AP from the intestine than toward AP from several mammalian tissue types” value (AP from the intestine) was “approximately 100 fold”.

For Brc1ccc([C@H]2CN3CCSC3=N2)cc1 [p-bromolevamisole], the “fold more potent than levamisole” value [4] was “approximately 10 fold”, the “Percent of Functional Levamisole Remaining” value ([1]; AMP buffer, as in Example I (pH 9.8, 45° C.), 0.1 mM p-bromolevamisole) was 100% and the “Percent of Functional Levamisole Remaining” value ([1]; AMPD buffer, as in Example I (pH 9.8, 45° C.), 0.1 mM p-bromolevamisole) was 100%. For the same compound, the “Percent of Functional Levamisole Remaining” value ([1]; Carbonate buffer, as in Example I (pH 9.8, 45° C.), 0.1 mM p-bromolevamisole) was 100%, the “Percent of Functional Levamisole Remaining” value ([1]; Diethanolamine buffer, as in Example I (pH 9.8, 45° C.), 0.1 mM p-bromolevamisole) was 100% and the “Percent of Functional Levamisole Remaining” value ([1]; Glycine buffer, as in Example I (pH 9.8, 45° C.), 0.1 mM p-bromolevamisole) was 100%. For the same compound, the “Percent of Functional Levamisole Remaining” value ([1]; Triethanolamine buffer, as in Example I (pH 9.8, 45° C.), 0.1 mM p-bromolevamisole) was 100%, the “decomposition compared with the parent compound levamisole” value ([1]; pH 9.8, 45° C., summary of Table II) was “quite a bit faster than the parent compound” and the remaining at 72 h, 100 µM ([2]; amp buffer) was 55.4%. For the same compound, the remaining at 216 h, 100 µM ([2]; amp buffer) was 23.9%, the remaining at 408 h, 100 µM ([2]; amp buffer) was 9.6% and the remaining at 72 h, 100 µM ([2]; ampd buffer) was 74%. The remaining at 216 h, 100 µM ([2]; ampd buffer) was 37.3%, the remaining at 408 h, 100 µM ([2]; ampd buffer) was 18.5% and the remaining at 72 h, 100 µM ([2]; carbonate buffer) was 44.4%. The remaining at 216 h, 100 µM ([2]; carbonate buffer) was 10.8%, the remaining at 408 h, 100 µM ([2]; carbonate buffer) was 2.62% and the remaining at 72 h, 100 µM ([2]; diethanolamine buffer) was 33.6%. For the same compound, the remaining at 216 h, 100 µM ([2]; diethanolamine buffer) was 1.3%, the remaining at 408 h, 100 µM ([2]; diethanolamine buffer) was 0.53% and the remaining at 72 h, 100 µM ([2]; glycine buffer) was 0.29%. It also gave a remaining at 216 h, 100 µM ([2]; glycine buffer) of 0.25%, a remaining at 408 h, 100 µM ([2]; glycine buffer) of 0% and a remaining at 72 h, 100 µM ([2]; triethanolamine buffer) of 59%. For the same compound, the remaining at 216 h, 100 µM ([2]; triethanolamine buffer) was 22.1% and the remaining at 408 h, 100 µM ([2]; triethanolamine buffer) was 7.86%.
